The values below are quoted from earlier work in patent US20050070512A1, “Pharmaceutical composition and methods comprising combinations of 2-alkylidene-19-nor-vitamin D derivatives and an estrogen agonist/antagonist” (Pfizer Inc, priority 2003, published 2005).

This series has as its system HL-60 cells.

Turning to `C=C1[C@H](O)CC(=C/C=C2\CCC[C@]3(C)[C@@H]([C@H](C)CCCC(C)(C)O)CC[C@@H]23)C[C@H]1O` [2-Methylene-19-Nor-1,25-(OH)2D3, 1α,25-dihydroxy-2-methylene-19-nor-vitamin D3], the “Induction of differentiation of HL-60 cells to the monocyte (in words)” value is on record as “activity similar to 1,25-(OH)2D3”.

`C=C1[C@H](O)CC(=C/C=C2\CCC[C@]3(C)[C@@H]([C@@H](C)CCCC(C)(C)O)CC[C@@H]23)C[C@H]1O` [2-Methylene-19-Nor-20S-1,25-(OH)2D3, (20S)-1α,25-dihydroxy-2-methylene-19-nor-vitamin D3]: the “Induction of differentiation of HL-60 cells to the monocyte (in words)” value is listed as “extremely potent”.
